From article PMC3898838, “Design, Synthesis, and Biological Evaluation of an Allosteric Inhibitor of HSET that Targets Cancer Cells with Supernumerary Centrosomes” (Chemistry & Biology, 2013) come the findings set out here.

Data set [1] has as its system N1E-115 cells. Description: Time-lapse microscopy, mitotic fate. It is filed as cell-based, mouse. As for the experimental part: Therefore, we interrogated cell division in N1E-115 cells using time-lapse imaging for further validation of target engagement. Treatment with 200 μM CW069 did indeed induce multipolar anaphase formation in N1E-115 cells (48%; Figure 5A) compared with the DMSO control (0%; Figure 5A). […] This is consistent with a previous report that catastrophic aneuploidy associated with multipolar divisions prompted cell death ([Kwon et al., 2008]). In order to corroborate selective inhibition of HSET by CW069 in cells, we treated HSET siRNA-depleted cells with 200 μM CW069 and compared them with DMSO/control siRNA-, DMSO/HSET siRNA-, and CW069/control siRNA-treated cells (Figure 5D).
(§1) Cells were synchronized in G2-M by incubation at 37°C and 5% CO2 for 24 hr with 9 μM of the CDK1 inhibitor RO-3306 (Merck). Cells were released by removal of the RO-3306 and four washings of 10 min each, at 37°C, with prewarmed culture media + 10% FBS. N1E-115 cells were transfected with siRNA (Supplemental Experimental Procedures) and imaged from 6 hr after transfection. Some RO-3306-synchronized cells were released with 200 μM CW069, 100 μM monastrol, or 0.2% DMSO, and imaging started immediately or 1 hr after treatment. Imaging was carried out for 24 hr, or for 4 hr in the case of the CW069/monastrol cotreatment. Imaging was conducted every 5 min in a humidified chamber with 37°C and 5% CO2, using a Nikon Eclipse TE2000-E microscope, and analyzed with NIS-Elements software (Nikon, Tokyo, Japan). The morphology of cells in mitosis and the mitotic fate (bipolar division, multipolar division, or cell death) were analyzed.

The test system of data set [2] is N1E-115 cells. As to the kind of experiment: Immunofluorescence, mitotic spindle morphology. The note with it: 2.5 hr, control 30%. It is filed as cell-based, mouse. The text has this:
Using IF, we next examined the mitotic phenotypes induced by CW069 in N1E-115 and NHDF cells, with a strong focus on centrosome numbers and mitotic spindle morphology. Antibodies against α-tubulin, CDK5RAP2, and DAPI were employed to visualize MTs, centrosomes, and DNA, respectively. We hypothesized that small-molecule inhibition of HSET would give rise to mitotic spindle defects similar to those reported after HSET knockdown by siRNA transfection ([Kwon et al., 2008]), and this was indeed the case. […] After treatment, the N1E-115 cells formed multipolar spindles due to a lack of centrosome clustering, consistent with HSET inhibition in cells with supernumerary centrosomes (Figure 4C).
[…] Prewarmed 4% paraformaldehyde in PBS was then added to each well to fix the cells before washing with PBS. Permeabilization and blocking was performed by incubating the slides with 1% BSA, 0.3% Triton X-100, 5% goat serum in PBS (PBS/B/0.3%T+5%GS) for 1 hr while shaking them at room temperature (RT). The slides were incubated with primary antibody solutions (mouse monoclonal anti-α-Tubulin [catalog number T9026; Sigma-Aldrich] and rabbit anti-CDK5RAP2 [catalog number A300-554A; Bethyl Laboratories]) at 4°C for 16 hr. […]

Data set [3] concerns MCF-7 cells. As to the kind of experiment: Immunofluorescence, mitotic spindle morphology. It is filed as cell-based, human. The note with it: MCF-7, 100 μM and 200 μM, 2.5 hr. As to the method: (§2) […] Prewarmed 4% paraformaldehyde in PBS was then added to each well to fix the cells before washing with PBS. Permeabilization and blocking was performed by incubating the slides with 1% BSA, 0.3% Triton X-100, 5% goat serum in PBS (PBS/B/0.3%T+5%GS) for 1 hr while shaking them at room temperature (RT). The slides were incubated with primary antibody solutions (mouse monoclonal anti-α-Tubulin [catalog number T9026; Sigma-Aldrich] and rabbit anti-CDK5RAP2 [catalog number A300-554A; Bethyl Laboratories]) at 4°C for 16 hr. The slides were washed four times with PBS/B/0.3%T+5%GS and then incubated with secondary antibody solutions (anti-rabbit IgG Alexa Fluor 488 [catalog number A21206] and anti-mouse IgG Alexa Fluor 647 [catalog number A20990]; Invitrogen) and DAPI (catalog number D3571; Invitrogen) in deionized water (300 nM) in the dark at RT for 1 hr. After four washes with PBS/B/0.3%T+5%GS, the solution was replaced with PBS and the slides were stored at 4°C until imaging was performed. Images were gathered with the use of an ICys Research Imaging Cytometer (CompuCyte) or a tandem confocal microscope (Leica).
(§3) (1 picture or pasted object on this page, not shown here)

The next data set relates to BT549 cells. Description: Immunofluorescence, mitotic spindle morphology. The note with it: BT549, 100 μM and 200 μM, 2.5 hr. It is filed as cell-based, human. As for the experimental part: as §2, §3
Data set [4] relates to primary adult human bone marrow cells. Description: Colony-formation (CFU-GM) assay. Format: cell-based. The note with it: 85 μM, 100 μM, 150 μM.
The subject of another data set is NHDF cells. Description: Time-lapse microscopy, mitotic fate. The note with it: 200 μM. It is filed as cell-based, human. As for the experimental part: as §1
The test system of data set [5] is MCF-7 cells. Description: Time-lapse microscopy, mitotic fate. Format: cell-based, human. Conditions: MCF-7, 200 μM. As for the experimental part: as §1

`O=C(O)c1cc(I)ccc1NC(=O)[C@H](Cc1ccccc1)NCc1ccccc1` [CW069]: in the data set on N1E-115 cells [1] (N1E-115, 200 μM), the “fate of daughter cells after aberrant divisions” value was “the majority of daughter cells underwent apoptosis”. Also, the multipolar anaphase formation in the data set with N1E-115 cells [1] (N1E-115, 200 μM CW069, DMSO control 0% (Figure 5A)) was 48%; with NHDF cells, “No similar increase in multipolar anaphase formation”. The multipolar anaphases in the data set with N1E-115 cells [1] (N1E-115, siRNA plus 200 μM CW069 or DMSO, DMSO/control siRNA 11% (Figure 5D)) turned out to be 57%. Besides, the multipolar spindle formation is on record as 98% in the data set on N1E-115 cells [2] (N1E-115, 100 μM) and 86% in the data set with N1E-115 cells [2] (N1E-115, 200 μM). Also, in the data set with MCF-7 cells [3], the bipolar spindle formation result is recorded as “did not perturb bipolar spindle formation”. In the data set on BT549 cells, the multipolar spindles entry was “increased multipolar spindles”. For the same compound, the clonogenic capacity result in data set [4] is recorded as “did not reduce the clonogenic capacity”. Further, the bipolar division result with MCF-7 cells [5] is recorded as “remained unaffected”.
